From patent US11149021B2, “N-(azaaryl)cyclolactam-1-carboxamide derivative, preparation method therefor, and use thereof” (Abbisko Therapeutics Co., Ltd., priority 2017, dated 2021)
pIC50: −log10 of the molar value. Where two headings read alike, the source gives them in different places.

Tests used:
[1] = system: M-NFS-60 mouse myeloid leukemia lymphocytes; experiment: CSF-1R cell proliferation study (Cell Titer Glo); format: cell-based; conditions: Lymphocyte, 72 h;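 note: M-CSF-driven proliferation, viable cells quantified as ATP by luminescence, compounds tested as 3-fold serial dilutions, values from four-parameter curve fits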
[2] = system: NCI-H1703 human non-small cell lung squamous carcinoma cells; experiment: CSF-1R-related cell proliferation experiment, PDGFRA (Cell Titer Glo); format: cell-based; conditions: NCI-H1703, 72 h, read-out: Cytological experiment PDGERA IC50 (nM)
[3] = system: M-07e human cytomegalic leukemia cells; experiment: CSF-1R-related cell proliferation experiment, KIT (Cell Titer Glo); format: cell-based; conditions: 72 h, read-out: Cytological experiment KIT IC50 (nM)
CSF-1R = target: T1, CSF-1R (Homo sapiens, UniProt P07333); experiment: CSF-1R in vitro biochemical kinase study (ADP-Glo assay)
T1 construct: 3.95 nM of CSF-1R, 500 μM of ATP

[4] = system: MV-4-11 human acute monocytic leukemia cells; experiment: CSF-1R-related cell proliferation experiment, FLT3 (Cell Titer Glo); format: cell-based; conditions: MV4-11, 72 h, read-out: Cytological experiment FLT3 IC50 (nM)
[5] = read-out: Cytological experiment CS1-1R Absolute IC50 (nM)
[6] = read-out: Cytological experiment CSF-1R IC50 (nM)

T1 sequence (P07333 20-972): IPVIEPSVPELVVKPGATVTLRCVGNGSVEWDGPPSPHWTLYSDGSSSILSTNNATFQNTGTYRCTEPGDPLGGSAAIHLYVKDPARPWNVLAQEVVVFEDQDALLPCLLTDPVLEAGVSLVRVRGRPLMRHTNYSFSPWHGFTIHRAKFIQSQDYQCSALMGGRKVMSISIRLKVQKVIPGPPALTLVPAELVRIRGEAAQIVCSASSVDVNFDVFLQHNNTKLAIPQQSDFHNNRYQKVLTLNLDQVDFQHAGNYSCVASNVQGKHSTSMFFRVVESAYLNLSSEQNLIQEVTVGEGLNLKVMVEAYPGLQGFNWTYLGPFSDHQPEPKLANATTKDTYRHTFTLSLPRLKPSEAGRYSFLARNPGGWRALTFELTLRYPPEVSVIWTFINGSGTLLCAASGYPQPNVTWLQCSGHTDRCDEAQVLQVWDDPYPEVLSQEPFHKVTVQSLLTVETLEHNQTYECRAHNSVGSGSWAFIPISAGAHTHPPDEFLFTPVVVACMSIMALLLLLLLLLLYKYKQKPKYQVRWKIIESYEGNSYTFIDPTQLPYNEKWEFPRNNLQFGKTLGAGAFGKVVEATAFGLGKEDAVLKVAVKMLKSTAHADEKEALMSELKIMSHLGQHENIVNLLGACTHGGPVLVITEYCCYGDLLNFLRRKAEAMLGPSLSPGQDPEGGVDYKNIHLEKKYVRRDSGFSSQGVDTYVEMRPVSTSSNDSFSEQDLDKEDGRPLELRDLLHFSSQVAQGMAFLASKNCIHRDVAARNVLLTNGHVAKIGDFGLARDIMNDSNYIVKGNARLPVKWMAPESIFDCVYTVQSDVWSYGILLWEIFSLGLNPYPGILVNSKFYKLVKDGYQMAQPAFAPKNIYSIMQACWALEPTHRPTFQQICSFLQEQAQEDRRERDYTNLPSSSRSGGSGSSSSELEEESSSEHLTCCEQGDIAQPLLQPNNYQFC

| IC50 [1, 5] [nM] | IC50 [1, 6] [nM] | IC50 [2] [nM] | IC50 [3] [nM] | pIC50 (CSF-1R) | IC50 [4] [nM] | Compound |
| --- | --- | --- | --- | --- | --- | --- |
| 35.5 | 43.5 | > 2000 | > 1120 | 7.67 | > 6000 | [2H]C([2H])([2H])n1cc(-c2cc(Oc3ccc(NC(=O)N4CCC(C)(C)C4=O)nc3C)ccn2)cn1 [Example 11, 3,3-dimethyl-N-(6-methyl-5-((2-(1-(methyl-d3)-1H-pyrazol-4-yl)pyridin-4-yl)oxy)pyridin-2-yl)-2-oxopyrrolidine-1-carboxamide] |
| 19.4 | 19.2 | 561 | 190 | 8.07 | 2980 | Cc1nc(NC(=O)N2CCC3(CCCC3)C2=O)ccc1Oc1ccnc(-c2cnn(C)c2)c1 [Example 31, N-(6-methyl-5-((2-(1-methyl-1H-pyrazol-4-yl)pyridin-4-yl)oxy)pyridin-2-yl)-1-oxo-2-azaspiro[4.4]nonane-2-carboxamide] |
| 31.2 | 45.2 | > 6000 | 727 | 7.22 | > 2000 | Cc1nc(NC(=O)N2CCC(C)(C)C2=O)ccc1Cc1ccnc(-c2cnn(C)c2)c1 [Example 21, 3,3-dimethyl-N-(6-methyl-5-((2-(1-methyl-1H-pyrazol-4-yl)pyridin-4-yl)methyl)pyridin-2-yl)-2-oxopyrrolidine-1-carboxamide] |
| 110 | 148 | – | – | 7.24 | – | Cc1nc(NC(=O)N2CCC(C)(C)C2=O)ccc1Oc1ccnc(-c2cnn(CCN3CCOCC3)c2)c1 [Example 8, 3,3-dimethyl-N-(6-methyl-5-((2-(1-(2-morpholinoethyl)-1H-pyrazol-4-yl)pyridin-4-yl)oxy)pyridin-2-yl)-2-oxopyrrolidine-1-carboxamide] |
| 500 | 500 | – | – | 6.60 | – | Cc1nc(NC(=O)N2CCC(C)(C)C2=O)ccc1Oc1ccnc(-c2cnn(C)c2)n1 [Example 22, 3,3-dimethyl-N-(6-methyl-5-((2-(1-methyl-1H-pyrazol-4-yl)pyrimidin-4-yl)oxy)pyridin-2-yl)-2-oxopyrrolidine-1-carboxamide] |
| > 2000 | > 2000 | > 18000 | > 18000 | 6.35 | > 18000 | Cc1nc(NC(=O)N2CCC(C)(O)C2=O)ccc1Oc1ccnc(-c2cnn(C)c2)c1 (stereo not drawn) [Example 41, 3-hydroxy-3-methyl-N-(6-methyl-5-((2-(1-methyl-1H-pyrazol-4-yl)pyridin-4-yl)oxy)pyridin-2-yl)-2-oxopyrrolidine-1-carboxamide] |
| 35 | 48.3 | – | – | 7.69 | – | [2H]C([2H])([2H])n1cc(-c2cc(Oc3ccc(NC(=O)N4CCCC(C)(C)C4=O)nc3C)ccn2)cn1 [Example 39, 3,3-dimethyl-N-(6-methyl-5-((2-(1-(methyl-d3)-1H-pyrazol-4-yl)pyridin-4-yl)oxy)pyridin-2-yl)-2-oxopiperidine-1-carboxamide] |
| 203 | 222 | – | – | 7.14 | – | COCCn1cc(-c2cc(Oc3ccc(NC(=O)N4CCC(C)(C)C4=O)nc3C)ccn2)cn1 [Example 7, N-(5-((2-(1-(2-methoxyethyl)-1H-pyrazol-4-yl)pyridin-4-yl)oxy)-6-methylpyridin-2-yl)-3,3-dimethyl-2-oxopyrrolidine-1-carboxamide] |
| 21.5 | 21.3 | 1330 | 667 | 7.29 | > 2000 | CCC1(CC)CCN(C(=O)Nc2ccc(Oc3ccnc(-c4cnn(C)c4)c3)c(C)n2)C1=O [Example 34, 3,3-diethyl-N-(6-methyl-5-((2-(1-methyl-1H-pyrazol-4-yl)pyridin-4-yl)oxy)pyridin-2-yl)-2-oxopyrrolidine-1-carboxamide] |
| 384 | 620 | – | – | 7.08 | – | CC(=O)Nc1cc(Oc2ccc(NC(=O)N3CCC(C)(C)C3=O)nc2C)ccn1 [Example 23, N-(5-((2-acetylamidopyridin-4-yl)oxy)-6-methylpyridin-2-yl)-3,3-dimethyl-2-oxopyrrolidine-1-carboxamide] |
| 441 | 487 | – | – | 6.87 | – | CNC(=O)c1cc(Oc2ccc(NC(=O)N3CCC(C)(C)C3=O)nc2C)ccn1 [Example 27, 4-((6-(3,3-dimethyl-2-oxopyrrolidine-1-carboxamido)-2-methylpyridin-3-yl)oxy)-N-methylpicolinamide] |
| 157 | 161 | – | – | 7.12 | – | Cc1nc(NC(=O)N2CCC(C)(C)C2=O)ccc1Oc1ccnc(NC(=O)C2CC2)c1 [Example 26, N-(5-((2-(cyclopropane-carboxamido)pyridin-4-yl)oxy)-6-methylpyridin-2-yl)-3,3-dimethyl-2-oxopyrrolidine-1-carboxamide] |
| 647 | 644 | – | – | 6.75 | – | Cc1nc(NC(=O)N2CCC(C)(C)C2=O)ccc1Oc1ccnc(-c2cn(C)cn2)c1 [Example 19, 3,3-dimethyl-N-(6-methyl-5-((2-(1-methyl-1H-imidazol-4-yl)pyridin-4-yl)oxy)pyridin-2-yl)-2-oxopyrrolidine-1-carboxamide] |
| 38.7 | 64.4 | > 6000 | > 1120 | 7.68 | > 6000 | Cc1nc(NC(=O)N2CCC(C)(C)C2=O)ccc1Oc1ccnc(-c2cnn(C3CC3)c2)c1 [Example 15, N-(5-((2-(1-cyclopropyl-1H-pyrazol-4-yl)pyridin-4-yl)oxy)-6-methylpyridin-2-yl)-3,3-dimethyl-2-oxopyrrolidine-1-carboxamide] |
| 40.3 | 41.9 | > 6000 | 535 | 7.70 | > 6000 | CCC1(C)CCN(C(=O)Nc2ccc(Oc3ccnc(-c4cnn(C)c4)c3)c(C)n2)C1=O (stereo not drawn) [Example 33, 3-ethyl-3-methyl-N-(6-methyl-5-((2-(1-methyl-1H-pyrazol-4-yl)pyridin-4-yl)oxy)pyridin-2-yl)-2-oxopyrrolidine-1-carboxamide] |
| 245 | 263 | – | – | 7.00 | – | Cc1nc(NC(=O)N2CCC(C)(C)C2=O)ccc1Oc1ccnc(-c2cnn(C(C)C)c2)c1 [Example 13, N-(5-((2-(1-isopropyl-1H-pyrazol-4-yl)pyridin-4-yl)oxy)-6-methylpyridin-2-yl)-3,3-dimethyl-2-oxopyrrolidine-1-carboxamide] |
| > 2000 | > 2000 | – | – | 5.64 | – | CNc1cc(Oc2ccc(NC(=O)N3CCC(C)(C)C3=O)nc2C)ccn1 [Example 42, 3,3-dimethyl-N-(6-methyl-5-((2-(methylamino)pyridin-4-yl)oxy)pyridin-2-yl)-2-oxopyrrolidine-1-carboxamide] |
| 213 | 216 | – | – | 7.37 | – | Cc1cc(-c2cc(Oc3ccc(NC(=O)N4CCC(C)(C)C4=O)nc3C)ccn2)ccn1 [Example 4, 3,3-dimethyl-N-(6-methyl-5-((2′-methyl-[2,4′-bipyridin]-4-yl)oxy)pyridin-2-yl)-2-oxopyrrolidine-1-carboxamide] |
| 687 | 667 | – | – | 6.64 | – | CCc1nc(NC(=O)N2CCC(C)(C)C2=O)ccc1Oc1ccnc(-c2cnn(C)c2)c1 [Example 3, N-(6-ethyl-5-((2-(1-methyl-1H-pyrazol-4-yl)pyridin-4-yl)oxy)pyridin-2-yl)-3,3-dimethyl-2-oxopyrrolidine-1-carboxamide] |
| 334 | 454 | – | – | 7.26 | – | Cc1ncc(-c2cc(Oc3ccc(NC(=O)N4CCC(C)(C)C4=O)nc3C)ccn2)s1 [Example 5, 3,3-dimethyl-N-(6-methyl-5-((2-(2-methylthiazol-5-yl)pyridin-4-yl)oxy)pyridin-2-yl)-2-oxopyrrolidine-1-carboxamide] |
| 115 | 118 | – | – | 7.33 | – | CCCn1cc(-c2cc(Oc3ccc(NC(=O)N4CCC(C)(C)C4=O)nc3C)ccn2)cn1 [Example 14, 3,3-dimethyl-N-(6-methyl-5-((2-(1-propyl-1H-pyrazol-4-yl)pyridin-4-yl)oxy)pyridin-2-yl)-2-oxopyrrolidine-1-carboxamide] |
